Measured values reported in publication PMC10274570, “Preclinical characterization of WB737, a potent and selective STAT3 inhibitor, in natural killer/T‐cell lymphoma” (MedComm, 2023).

What was measured:
[1] = target: T1, signal transducer and activator of transcription 3 (STAT3) (Homo sapiens, UniProt P40763); assay: microscale thermophoresis with labeled purified His-STAT3 […]-722 (reference inhibitor); assay type: binding
T1 construct: His-STAT3 127-722

[2] = target: T1, signal transducer and activator of transcription 3 (STAT3); assay: microscale thermophoresis with labeled purified His-STAT3 […]-722; assay type: binding

T1 sequence (P40763 127-722): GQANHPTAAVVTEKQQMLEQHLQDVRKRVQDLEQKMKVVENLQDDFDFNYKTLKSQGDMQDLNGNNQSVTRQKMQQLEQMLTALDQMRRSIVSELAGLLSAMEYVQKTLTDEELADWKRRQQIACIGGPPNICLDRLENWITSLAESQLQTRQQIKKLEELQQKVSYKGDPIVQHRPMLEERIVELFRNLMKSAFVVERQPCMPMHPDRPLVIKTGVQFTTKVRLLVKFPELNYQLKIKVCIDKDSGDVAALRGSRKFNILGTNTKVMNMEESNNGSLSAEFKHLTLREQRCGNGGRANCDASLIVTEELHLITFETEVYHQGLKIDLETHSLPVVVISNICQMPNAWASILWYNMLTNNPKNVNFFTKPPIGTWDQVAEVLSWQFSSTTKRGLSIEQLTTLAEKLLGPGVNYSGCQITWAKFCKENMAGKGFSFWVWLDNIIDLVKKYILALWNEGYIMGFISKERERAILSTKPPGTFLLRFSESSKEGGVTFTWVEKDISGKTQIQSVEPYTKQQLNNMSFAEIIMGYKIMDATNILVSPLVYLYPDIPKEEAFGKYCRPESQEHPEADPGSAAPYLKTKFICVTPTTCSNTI

Kd [2] [µM]	Molecule	Kd [1] [µM]
	O=[N+]([O-])c1ccc2c(c1)S(=O)(=O)C=C2 [Stattic]	6.51 ± 0.82
0.00134 ± 0.00019	WB737	
